Source: publication PMC6981454, “Promising 2,6,9-Trisubstituted Purine Derivatives for Anticancer Compounds: Synthesis, 3D-QSAR, and Preliminary Biological Assays” (International Journal of Molecular Sciences, 2019)
Read-outs that look alike come from different tables or passages of the source.

Tests used:
Format in all cases: cell-based, human
NCI-H460 = test: MTT cytotoxicity assay, 72 h
Method: (§1) In our study, the human cancer cell lines used were CFAPC- 1 (pancreatic adenocarcinoma); NCI-H460 (large cell lung); HL-60 (acute promyelocytic leukaemia); CACO2 (colorectal adenocarcinoma); HCT-116 (colorectal carcinoma); K562 (chronic myeloid leukaemia); MCF-7 (breast adenocarcinoma); and MRC-5 control cells (normal fibroblasts).
(§2) CFAPC-1, NCI-H460 H1975, HL-60, HCT-116, CACO2, K562, MCF-7, and MCR-5 were grown and maintained in RPMI 1640 and DMEM F12 as appropriate with 10% fetal bovine serum, 100 UI/mL penicillin–streptomycin, and cultured al 37 °C in 5% CO2 humidified atmosphere. Control cultures were treated with dimethyl sulfoxide (1%) alone at the same concentration as in the purine derivatives treatment. Cell viability was determined by trypan blue dye exclusion. Cell numbers were counted in hemocytometer by light microscopy.
(§3) Cytotoxicity assays were performed by using the MTT reduction method as described in the literature. Briefly, cancer cell lines were plated in a flat-bottom 96-wells plate at 1 × 10^4 cells per well density. Then, the cells were incubated with synthetized compounds at different concentrations (from 0.1 to 100 µM) in 200 µL of 10% fetal bovine serum-RPMI or EMEM culture medium at 37 °C for 72 h. Then, 10 µL of MTT was added at a final concentration of 0.5 mg/mL, incubated at 37 °C for 4 h, and then solubilized with 10% sodium dodecyl sulphate (SDS) in 0.1 mM HCl and incubated overnight at 37 °C. Formazan formation was measured at 570 nm in a multi-well reader (StatFax 4200).

HCT-116 = test: MTT cytotoxicity assay, 72 h; settings: Homo sapiens, HCT-116, IC50 ± SD
Method: as §1, §2, §3

MCF-7 = test: MTT cytotoxicity assay, 72 h
Method: as §1, §2, §3

HL-60 = test: MTT cytotoxicity assay, 72 h; settings: for IC50: Homo sapiens
Method: as §1, §2, §3

CFPAC-1 = test: MTT cytotoxicity assay, 72 h; settings: Homo sapiens, CFPAC-1, IC50 ± SD
Method: as §1, §2, §3

K562 = test: MTT cytotoxicity assay, 72 h
Method: as §1, §2, §3

MRC-5 = test: MTT cytotoxicity assay, 72 h, normal control cells; settings: Homo sapiens, MRC5, IC50 ± SD, normal fibroblasts
Method: as §1, §2, §3

CACO2 = test: MTT cytotoxicity assay, 72 h; settings: Homo sapiens, Caco-2, IC50 ± SD
Method: Cytotoxicity assays were performed by using the MTT reduction method as described in the literature [23, 37]. Briefly, cancer cell lines were plated in a flat-bottom 96-wells plate at 1 × 10^4 cells per well density. Then, the cells were incubated with synthetized compounds at different concentrations (from 0.1 to 100 µM) in 200 µL of 10% fetal bovine serum-RPMI or EMEM culture medium at 37 °C for 72 h. Then, 10 µL of MTT was added at a final concentration of 0.5 mg/mL, incubated at 37 °C for 4 h, and then solubilized with 10% sodium dodecyl sulphate (SDS) in 0.1 mM HCl and incubated overnight at 37 °C. Formazan formation was measured at 570 nm in a multi-well reader (StatFax 4200).

## O=[N+]([O-])c1ccc(N2CCN(c3nc(Cl)nc4c3ncn4C3CCCC3)CC2)cc1 [7h, 2-Chloro-9-cyclopentyl-6-(4-(4-nitrophenyl)piperazin-1-yl)-9H-purine]
NCI-H460; Homo sapiens, NCI-H460, 72 h, MTT, 72 h, IC50 ± SD, read-out: IC50 NCI-H460
  IC50: 1300 nM
NCI-H460; Homo sapiens, NCI-H460, -logIC50 in molar concentration, Table S2, read-out: Experimental pIC50 (NCI-H460) (converted)
  IC50: 1310 nM
NCI-H460; IC50 in MRC-5 / IC50 in NCI-H460
  Selectivity Index (SI) MRC-5/NCI-H460: > 76.3
NCI-H460; MTT, 72 h, IC50 ± SD, read-out: IC50 NCI-H460
  IC50: 1310 ± 70 nM
HCT-116
  IC50: 30000 ± 7100 nM
MCF-7; IC50 in MRC-5 / IC50 in MCF-7
  Selectivity Index (SI) MRC-5/MCF-7: > 64.5
MCF-7; MTT, 72 h, IC50 ± SD
  IC50: 1550 ± 340 nM
HL-60; HL-60, 72 h, MTT, 72 h, IC50 ± SD, read-out: IC50 HL-60
  IC50: 400 ± 10 nM
HL-60; HL-60, -logIC50 in molar concentration, Table S1, read-out: Experimental pIC50 (HL-60) (converted)
  IC50: 400 nM
HL-60; IC50 in MRC-5 / IC50 in HL-60
  Selectivity Index (SI) MRC-5/HL-60: > 250
CFPAC-1
  IC50: > 100000 nM
K562; Homo sapiens, K562, 72 h, MTT, 72 h, IC50 ± SD
  IC50: 1020 ± 40 nM
K562; IC50 in MRC-5 / IC50 in K562
  Selectivity Index (SI) MRC-5/K562: > 98
MRC-5
  IC50: > 100000 nM
CACO2
  IC50: > 100000 nM
